Test results taken from US20200254026A1, “AGENT FOR PROMOTING MIGRATION OF PLURIPOTENT STEM CELLS” (NIPPON ZOKI PHARMACEUTICAL CO., LTD., priority 2015, published 2020).

Test system: Muse cells (SSEA-3-positive cells)
Experiment: Cell mobility analysis (EZ-TAXIScan), chemotactic ability of Muse cells
Assay type: cell-based
Settings: SSEA-3-positive cells from human bone marrow mesenchymal stem cells; 2 μM S1P as positive control; photographed every 10 minutes
Protocol: Mesenchymal stem cells derived from human bone marrow in a concentration of 1×10^7 cells/mL were prepared using an FACS buffer containing Dulbecco PBS, 0.5% bovine serum albumin, and 2 mM EDTA (ethylenediaminetetraacetic acid). Thereto, an anti-SSEA-3 antibody (diluted 400 times) was added as a primary antibody. Reaction was allowed to proceed on ice for 1 hour while being suspended at appropriate times, followed by centrifugation for supernatant removal. Then, the addition and removal of an FACS buffer were repeated three times for rinsing. Thereto, an FITC-labeled anti-rat-IgM antibody (diluted 100 times) was added as a secondary antibody. Subsequently, in the same manner as above, reaction was allowed to proceed on ice for 1 hour and then addition and removal of an FACS buffer were repeated three times for rinsing. SSEA-3-positive cells were separated by FACS the day before measurement, followed by overnight culturing under conditions of 37° C. and 5% CO2. […] The resulting cell suspension was injected into each well of an EZ-[…] (registered trademark; the same applies hereinafter) holder chamber (GE Healthcare), and the cells were aligned properly in front of a terrace by a water-level difference method. […] The EZ-[…] holder chamber was placed in an incubator under conditions of 37° C. and 5% CO2. […]

Question: How did the “movement of Muse cells (chemotactic ability with time)” value turn out when CCCCCCCCCCCCC/C=C/[C@@H](O)[C@@H](N)COP(=O)(O)O [S1P, sphingosine-1-phosphate] was run?
Answer: The value was “same movement of Muse cells was observed”.
